According to US10125148B2, “Pyrazolopyrimidine macrocycles as inhibitors of human immunodeficiency virus replication” (priority 2014, dated 2018):

Experiments:
[1] = from C=CCOC1(C)CCN(c2c([C@H](OC(C)(C)C)C(=O)OC)c(C)nc3cc(-c4cccc(-c5cc(CC)ccc5O[C@@H](C)CC=C)c4)nn23)CC1; rcm bond; 20-membered ring; Hoveyda-Grubbs II (name truncated)/CuI; DCE; 1.09 mM; 3.0 h
[2] = from C=CCOC1(C)CCN(c2c([C@H](OC(C)(C)C)C(=O)OC)c(C)nc3cc(-c4cccc(-c5c(F)cc(F)cc5O[C@@H](C)CC=C)c4)nn23)CC1; rcm bond; 20-membered ring; Hoveyda-Grubbs II (2 x 0.05 eq); toluene; 1.26 mM; 80.0 °C; 3.0 h

Compound | ring closure, crude yield [1] [%] | ring closure, isolated yield [2] [%]
CCc1ccc2c(c1)-c1cccc(c1)-c1cc3nc(C)c([C@H](OC(C)(C)C)C(=O)OC)c(n3n1)N1CCC(C)(CC1)OCC=CC[C@H](C)O2 | 92 | –
COC(=O)[C@@H](OC(C)(C)C)c1c(C)nc2cc3nn2c1N1CCC(C)(CC1)OCC=CC[C@H](C)Oc1cc(F)cc(F)c1-c1cccc-3c1 | – | 48
